“Also recorded” adds a separate entry of the source.
Experiments:
[1] = biological target: T1, amiloride-sensitive sodium channels (Homo sapiens, UniProt P37088+P51168+P51170); assay: Polarised sodium ion channel distribution: short circuit current and transepithelial potential difference on amiloride exposure; type: cell-based
T1 construct: The exposure of the apical surface of the urothelial tissue to amiloride reduced both the voltage and the current; endogenous in cells; host or cells: in vitro cultured, differentiated human urothelial cell sheet
Procedure: (§1) Polarised Sodium Ion Channel Distribution. In order to determine the presence and correct spatial location of sodium ion channels, short circuit current and transepithelial potential difference were measured under voltage and current clamped conditions respectively.

[2] = test system: Na^+—K^+ ATPase; assay: Short circuit current and transepithelial potential difference on ouabain exposure; type: cell-based, human
Procedure: as §1

[3] = exposure of basal surface of in vitro cultivated urothelium
[4] = exposure of apical surface of in vitro cultivated urothelium

T1 sequence (P51170 whole entry): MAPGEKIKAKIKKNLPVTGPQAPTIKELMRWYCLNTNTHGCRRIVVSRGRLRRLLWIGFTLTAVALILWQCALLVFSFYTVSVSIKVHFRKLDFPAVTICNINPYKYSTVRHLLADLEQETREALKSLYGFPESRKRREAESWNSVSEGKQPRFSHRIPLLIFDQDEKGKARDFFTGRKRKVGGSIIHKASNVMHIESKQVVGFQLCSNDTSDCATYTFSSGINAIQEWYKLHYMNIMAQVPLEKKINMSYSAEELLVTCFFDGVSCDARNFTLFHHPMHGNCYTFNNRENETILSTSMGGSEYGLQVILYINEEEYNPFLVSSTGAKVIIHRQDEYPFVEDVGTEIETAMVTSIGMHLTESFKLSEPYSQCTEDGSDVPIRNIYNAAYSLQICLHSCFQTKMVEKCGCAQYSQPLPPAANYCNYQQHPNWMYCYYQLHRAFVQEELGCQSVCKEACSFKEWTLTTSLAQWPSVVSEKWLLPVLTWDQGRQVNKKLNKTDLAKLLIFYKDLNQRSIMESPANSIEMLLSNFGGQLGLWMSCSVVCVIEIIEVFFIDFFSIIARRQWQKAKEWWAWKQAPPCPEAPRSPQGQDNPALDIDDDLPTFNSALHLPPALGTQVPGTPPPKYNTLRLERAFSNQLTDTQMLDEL
T1 sequence (P37088 whole entry): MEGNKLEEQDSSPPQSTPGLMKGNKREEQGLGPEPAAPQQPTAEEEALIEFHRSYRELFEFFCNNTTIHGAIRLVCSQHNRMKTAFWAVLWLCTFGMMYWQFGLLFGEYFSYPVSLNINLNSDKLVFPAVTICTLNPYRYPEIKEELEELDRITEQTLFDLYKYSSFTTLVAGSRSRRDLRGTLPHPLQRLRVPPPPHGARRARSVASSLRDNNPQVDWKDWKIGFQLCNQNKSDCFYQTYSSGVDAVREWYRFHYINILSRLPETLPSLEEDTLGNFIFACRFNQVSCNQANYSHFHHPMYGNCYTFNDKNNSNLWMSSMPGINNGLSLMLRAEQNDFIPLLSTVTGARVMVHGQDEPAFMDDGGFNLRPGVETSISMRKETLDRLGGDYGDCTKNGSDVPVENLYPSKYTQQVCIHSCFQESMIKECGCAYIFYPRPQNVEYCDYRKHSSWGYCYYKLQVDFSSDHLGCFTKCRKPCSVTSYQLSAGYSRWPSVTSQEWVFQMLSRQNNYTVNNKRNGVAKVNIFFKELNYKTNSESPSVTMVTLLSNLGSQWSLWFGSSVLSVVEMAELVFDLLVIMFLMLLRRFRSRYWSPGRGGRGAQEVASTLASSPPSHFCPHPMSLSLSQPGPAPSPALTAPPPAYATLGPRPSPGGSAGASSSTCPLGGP
T1 sequence (P51168 whole entry): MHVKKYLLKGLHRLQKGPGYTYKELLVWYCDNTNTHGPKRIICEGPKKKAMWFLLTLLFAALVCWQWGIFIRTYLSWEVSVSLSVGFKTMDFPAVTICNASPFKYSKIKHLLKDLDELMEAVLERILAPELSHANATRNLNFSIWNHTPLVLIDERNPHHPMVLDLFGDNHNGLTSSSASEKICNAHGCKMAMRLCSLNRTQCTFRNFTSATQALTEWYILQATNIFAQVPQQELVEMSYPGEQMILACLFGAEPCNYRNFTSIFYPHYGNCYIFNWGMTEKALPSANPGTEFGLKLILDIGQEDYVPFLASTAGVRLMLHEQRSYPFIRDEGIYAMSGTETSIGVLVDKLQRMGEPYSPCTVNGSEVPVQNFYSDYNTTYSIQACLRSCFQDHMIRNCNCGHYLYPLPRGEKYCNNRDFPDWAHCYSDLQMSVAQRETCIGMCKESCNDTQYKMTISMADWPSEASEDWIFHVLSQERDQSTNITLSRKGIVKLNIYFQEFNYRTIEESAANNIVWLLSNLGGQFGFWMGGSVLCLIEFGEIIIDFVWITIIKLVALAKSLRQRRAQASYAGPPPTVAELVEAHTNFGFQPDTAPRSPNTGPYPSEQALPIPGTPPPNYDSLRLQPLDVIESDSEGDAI

Row | SMILES | effect on transepithelial potential difference (voltage) ([1]; exposure of apical surface of in vitro cultivated urothelium, current clamped) | effect on short circuit current ([1]; exposure of apical surface of in vitro cultivated urothelium, voltage clamped) | effect on short circuit current [1, 3] | effect on transepithelial potential difference (voltage) [1, 3] | effect on short circuit current [2, 4] | effect on transepithelial potential difference (voltage) [2, 4] | effect on short circuit current [2, 3] | effect on transepithelial potential difference (voltage) [2, 3]
1 | N=C(N)NC(=O)c1nc(Cl)c(N)nc1N [amiloride] | reduced both the voltage and the current in a dose-dependent manner | dose-responsive decrease in short circuit current; also recorded: reduced both the voltage and the current in a dose-dependent manner | did not affect either the voltage or the current | did not affect either the voltage or the current |  |  |  | 
2 | C[C@@H]1O[C@@H](O[C@H]2C[C@@H](O)[C@]3(CO)[C@H]4[C@H](O)C[C@]5(C)[C@@H](C6=CC(=O)OC6)CC[C@]5(O)[C@@H]4CC[C@]3(O)C2)[C@H](O)[C@H](O)[C@H]1O [ouabain] |  |  |  |  | only a minor effect on the measured voltage and current | only a minor effect on the measured voltage and current | marked reduction of both voltage and current | marked reduction of both voltage and current

Source: patent US8133729B2, “Biomimetic urothelium” (The University of York, priority 2002, dated 2012)
